Assay results published in patent publication US10301272B2, “Carboxamide or sulfonamide substituted thiazoles and related derivatives as modulators for the orphan nuclear receptor ROR[γ]” (Phenex Pharmaceuticals AG, priority 2012, dated 2019).
Where two headings read alike, the source gives them in different places.

Legend:
[1] = biological target: RORγ (Homo sapiens, UniProt P51449); assay: RORγ Gal4 Reporter Gene Assay; assay type: cell-based
Procedure, shortened: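 Cells at 5×10^5/well were transfected with RORγ fragments fused to the GAL4 DNA-binding domain (CMV promoter), a 5×GAL4-site firefly luciferase reporter and CMV-Renilla luciferase for normalization. About 4 h later serum-free MEM and compound were added (vehicle ≤0.1%). Cultures at 37 °C, 5% CO2; at least triplicates.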

[2] = biological target: RORγ ligand binding domain (LBD) (Homo sapiens (Human), UniProt P51449); assay: TR-FRET Activity Assay (ligand sensing assay, LANCE); settings: for pIC50 (FRET): TR-FRET, interaction of RORγ-LBD with coactivator peptide
Excerpt: The ligand-binding domain (LBD) of RORγ was expressed as fusion protein with GST in BL-21 (BL3) cells using the vector pDEST15. Cells were lysed by lysozyme-treatment and sonication, and the fusion proteins purified over glutathione sepharose (Pharmacia) according to the manufacturers instructions. For screening of compounds for their influence on the RORγ-peptide interaction, the LANCE technology (Perkin Elmer) was applied. This method relies on the binding dependent energy transfer from a donor to an acceptor fluorophor attached to the binding partner of interest. For ease of handling and reduction of background from compound fluorescence LANCE technology makes use of generic fluorophore labels and time resolved detection assays were done in a final volume of 25 μL in a 384 well plate, in a Tris-based buffer system (20 mM Tris-HCl pH 6.8; 60 mM KCl, 1 mM DTT; 5 mM MgCl2; 35 ng/μL BSA), containing 20-60 ng/well recombinantly expressed RORγ-LBD fused to GST, 200-600 nM N-terminally biotinylated peptide, 200 ng/well Streptavidin-xlAPC conjugate (Prozyme) and 6-10 ng/well Eu W1024-antiGST (Perkin Elmer). DMSO content of the samples was kept at 1%.
After generation of the Tris-based buffer system, the potentially RORγ modulating ligands were diluted. […] The LANCE signal was detected by a Perkin Elmer EnVision™ Multilabel Counter. […] Ligands that promote the complex formation induce a concentration-dependent increase in time-resolved fluorescent signal.
Y is the response. Y starts at Bottom and goes to Top with a sigmoidal shape.
This is identical to the “four parameter logistic equation”. The IC50 values are calculated using this equation.

[3] = firefly (FF) luciferase, 293T cells
[4] = renilla normalised (RENnorm) luciferase, 293T cells
[5] = firefly (FF) luciferase, 293T cells, read-out: pIC50 (FF) (converted)
[6] = renilla normalised (RENnorm) luciferase, 293T cells, read-out: pIC50 (REN) (converted)

RORγ ligand binding domain (LBD), sequence (P51449 269-508): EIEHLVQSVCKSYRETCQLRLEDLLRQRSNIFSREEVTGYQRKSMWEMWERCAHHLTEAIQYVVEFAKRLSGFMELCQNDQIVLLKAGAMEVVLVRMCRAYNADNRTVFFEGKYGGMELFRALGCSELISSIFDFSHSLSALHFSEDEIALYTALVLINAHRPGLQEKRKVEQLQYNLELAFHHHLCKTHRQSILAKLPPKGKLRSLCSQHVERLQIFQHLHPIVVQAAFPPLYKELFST
RORγ, sequence (P51449 whole entry, looked up, the tested form may be a part): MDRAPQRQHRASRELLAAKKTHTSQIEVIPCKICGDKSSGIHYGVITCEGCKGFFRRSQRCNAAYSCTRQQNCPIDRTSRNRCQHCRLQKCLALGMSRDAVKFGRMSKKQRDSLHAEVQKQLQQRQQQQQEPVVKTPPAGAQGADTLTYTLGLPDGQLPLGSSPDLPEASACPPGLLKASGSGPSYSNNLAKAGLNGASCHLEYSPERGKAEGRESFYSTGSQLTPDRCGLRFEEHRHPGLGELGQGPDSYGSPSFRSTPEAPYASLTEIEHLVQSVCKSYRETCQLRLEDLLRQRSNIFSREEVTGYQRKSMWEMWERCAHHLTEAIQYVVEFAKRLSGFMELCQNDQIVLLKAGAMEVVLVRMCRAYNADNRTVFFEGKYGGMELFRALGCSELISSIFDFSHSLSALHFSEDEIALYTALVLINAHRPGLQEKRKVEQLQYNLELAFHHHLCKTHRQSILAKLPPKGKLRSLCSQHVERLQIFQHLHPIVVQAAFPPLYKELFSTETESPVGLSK

Row | Compound | pIC50 (FF) [1] | pIC50 (REN) [1] | pIC50 (FRET) [2] | pIC50 (FF) [1, 3] | pIC50 (REN) [1, 4] | IC50 [1, 5] [µM] | IC50 [1, 6] [µM] | IC50 [2] [µM]
1 | CC(C)(O)CNC(=O)c1nc(CC2CCCCC2)c(-c2ccc(S(=O)(=O)NC(C)(C)C)c(Cl)c2Cl)o1 [100/15] | 6.4/7.4/7.5 | 6.4/7.4/7.5 | 6.4/7.4/7.5 |  |  |  |  | 
2 | CC(C)(C)c1cc(-c2nc(C(=O)NC3COC3)ncc2CC2CCCCC2)cc(C(C)(C)C)c1 [Example 207, 5-(Cyclohexylmethyl)-4-(3,5-di-tert-butylphenyl)-N-(oxetan-3-yl)pyrimidine-2-carboxamide] | 5.4/6.4/6.5 | 5.4/6.4/6.5 | 5.4/6.4/6.5 |  |  |  |  | 
3 | CCS(=O)(=O)c1ccc(CC(=O)Nc2nc(-c3ccccc3)c(Cc3ccccc3)s2)cc1 [Example 211, N-(5-Benzyl-4-phenylthiazol-2-yl)-2-(4-(ethylsulfonyl)phenyl)acetamide] |  |  | 5.8 | 6.3 | 6.4 |  |  | 
4 | CC(C)(C)NS(=O)(=O)c1ccc(-c2oc(C(=O)NC34CCC(C(=O)NS(C)(=O)=O)(CC3)CC4)nc2CC2CCCCC2)c2ccccc12 [Example 102, 5-(4-(N-(tert-Butyl)sulfamoyl)naphthalen-1-yl)-4-(cyclohexylmethyl)-N-(4-((methylsulfonyl)carbamoyl)bicyclo[2.2.2]octan-1-yl)oxazole-2-carboxamide] | 6.0/7.3/7.4 | 6.0/7.3/7.4 | 6.0/7.3/7.4 |  |  |  |  | 
5 | CC(C)(C)NS(=O)(=O)c1ccc(-c2sc(C(=O)NC3CCS(=O)(=O)CC3)nc2CC2CC2)c(Cl)c1Cl [6/35] | 7.0/7.5/7.5 | 7.0/7.5/7.5 | 7.0/7.5/7.5 |  |  |  |  | 
6 | CC(C)(C)NS(=O)(=O)c1ccc(-c2sc(C(=O)N[C@H]3C[C@H](C(=O)O)C3)nc2CC2CCCCC2)c(F)c1C(F)F [7/15] | 6.7/8.7/8.5 | 6.7/8.7/8.5 | 6.7/8.7/8.5 |  |  |  |  | 
7 | O=C(N[C@H]1C[C@H](C(=O)O)C1)c1nc(CC2CCCCC2)c(-c2ccc(OCC(F)(F)F)c3ccccc23)s1 [7/22] |  |  |  |  |  | 0.316 | 0.631 | > 20
8 | CC(C)(C)NS(=O)(=O)c1ccc(-c2sc(S(N)(=O)=O)nc2CC2CCCCC2)cc1C(C)(C)C [Example 13/1] | 6.3/6.6/6.6 | 6.3/6.6/6.6 | 6.3/6.6/6.6 |  |  |  |  | 
9 | COC(c1nc(C(=O)N[C@H]2C[C@H](C(=O)O)C2)sc1-c1ccc(S(=O)(=O)NC(C)(C)C)c(C(C)(C)C)c1)C1CCCCC1 (stereo partly drawn) [Example 19, trans-3-(5-(3-(tert-Butyl)-4-(N-(tert-butyl)sulfamoyl)phenyl)-4-(cyclohexyl(methoxy)methyl)thiazole-2-carboxamido)cyclobutanecarboxylic acid] | 5.4/6.4/6.6 | 5.4/6.4/6.6 | 5.4/6.4/6.6 |  |  |  |  | 
10 | CC(C)(C)NS(=O)(=O)c1ccc(-c2sc(C(=O)N[C@H]3C[C@@H](S(C)(=O)=O)C3)nc2CC2CCCCC2)c(Cl)c1Cl [6/42] | 7.2/8.2/8.4 | 7.2/8.2/8.4 | 7.2/8.2/8.4 |  |  |  |  | 
11 | CC(C)(C)NS(=O)(=O)c1ccc(-c2sc(C(=O)NCC3(C(N)=O)CCOCC3)nc2CC2CCCCC2)cc1C(C)(C)C [Example 6/1] | 6.5/7.5/7.7 | 6.5/7.5/7.7 | 6.5/7.5/7.7 |  |  |  |  | 
12 | CC(C)(C)NS(=O)(=O)c1ccc(-c2oc(C(=O)NCC3(O)CCS(=O)(=O)CC3)nc2CC2CCCCC2)c2ccccc12 [100/8] | 6.5/8.0/8.2 | 6.5/8.0/8.2 | 6.5/8.0/8.2 |  |  |  |  | 
13 | CC(C)(C)NS(=O)(=O)c1ccc(-c2oc(C(=O)N[C@H]3C[C@H](C(=O)O)C3)nc2CC2CCCCC2)c2ccccc12 [100/13] | 6.1/7.0/7.1 | 6.1/7.0/7.1 | 6.1/7.0/7.1 |  |  |  |  | 
14 | CC(C)(C)NS(=O)(=O)c1ccc(-c2sc(C(=O)N3CC(C(C)(C)C(=O)O)C3)nc2CC2CCCCC2)c(Cl)c1Cl [6/37] | 6.1/6.9/6.9 | 6.1/6.9/6.9 | 6.1 |  |  |  |  | 
15 | CCS(=O)(=O)c1ccc(CC(=O)Nc2nc(CC3CCCCC3)c(-c3ccc(S(=O)(=O)NC(C)(C)C)c(C(F)(F)F)c3)s2)cc1 [Example 200/1] | 7.1/7.4/7.8 | 7.1/7.4/7.8 | 7.1/7.4/7.8 |  |  |  |  | 
16 | CC(C)(C)c1cc(-c2sc(C(=O)N[C@H]3C[C@H](C(=O)O)C3)[n+]([O-])c2CC2CCCCC2)cc(C(C)(C)C)n1 [Example 22, 2-(((trans)-3-Carboxycyclobutyl)carbamoyl)-4-(cyclohexylmethyl)-5-(2,6-di-tert-butylpyridin-4-yl)thiazole 3-oxide] |  |  |  | 7.1 | 7.1 |  |  | 0.398

Row | Compound | pIC50 (FF) [1] | pIC50 (REN) [1] | pIC50 (FRET) [2] | pIC50 (FF) [1, 3] | pIC50 (REN) [1, 4] | IC50 [1, 5] [µM] | IC50 [1, 6] [µM] | IC50 [2] [µM]
17 | CC(C)(C)NS(=O)(=O)c1ccc(-c2sc(C(=O)NCCC(C)(C)C(=O)O)nc2CC2CCCCC2)cc1C(C)(C)C [Example 7/1] | 6.1/6.8/6.9 | 6.1/6.8/6.9 | 6.1/6.8/6.9 |  |  |  |  | 
18 | CC(C)(C)NS(=O)(=O)c1ccc(-c2oc(C(=O)N[C@H]3C[C@H](C(=O)O)C3)nc2CC2CCCCC2)c(Cl)c1Cl [100/17] | 6.1/7.1/7.0 | 6.1/7.1/7.0 | 6.1/7.1/7.0 |  |  |  |  | 
19 | CC(C)(C)NS(=O)(=O)c1ccc(-c2sc(C(=O)NC3CC3)nc2CC2CCCCC2)c(Cl)c1Cl [6/31] | 7.3/8.0/8.0 | 7.3/8.0/8.0 | 7.3/8.0/8.0 |  |  |  |  | 
20 | CC(C)(C)c1cc(-c2sc(C(=O)NC3CC(C(=O)O)C3)nc2CC2CCCCC2)nc(C2(C)CC2)n1 (stereo not drawn) [19/12] |  |  | 6.1 | 6.8 | 6.7 |  |  | 
21 | CC(C)(O)CNC(=O)c1nc(CC2CCCCC2)c(-c2ccc(S(=O)(=O)NC(C)(C)C)c(C(C)(C)O)c2)s1 [6/23] | 6.6/7.5/7.6 | 6.6/7.5/7.6 | 6.6/7.5/7.6 |  |  |  |  | 
22 | NS(=O)(=O)c1c(Cl)cc(-c2sc(C(=O)NC3CCOCC3)nc2CC2CCCCC2)cc1C(F)(F)F [Example 17/1] | 5.6/6.1/6.5 | 5.6/6.1/6.5 | 5.6/6.1/6.5 |  |  |  |  | 
23 | CC(C)(C)NS(=O)(=O)c1ccc(-c2sc(C(=O)N3CC4(CSC4)C3)nc2CC2CCCCC2)c(Cl)c1Cl [6/32] | 6.9/8.0/8.2 | 6.9/8.0/8.2 | 6.9/8.0/8.2 |  |  |  |  | 
24 | CN(C(=O)c1nc(CC2CCCCC2)c(-c2ccc(S(=O)(=O)NC(C)(C)C)c3ccccc23)o1)C1CCOCC1 [100/4] | 6.6/7.1/7.3 | 6.6/7.1/7.3 | 6.6/7.1/7.3 |  |  |  |  | 
25 | CC(C)(C)NS(=O)(=O)c1ccc(-c2sc(C(=O)NCCC(C)(C)C(=O)O)nc2CC2CCCCC2)cc1C(F)(F)F [Example 9/1] | 6.5/7.4/7.4 | 6.5/7.4/7.4 | 6.5/7.4/7.4 |  |  |  |  | 
26 | CC(C)(C)c1cc(-c2sc(C(=O)NC3CC(C(=O)O)C3)nc2CC2CCCCC2)nc(C(C)(C)C)n1 (stereo not drawn) [19/13] |  |  | 6.5 | 6.9 | 6.9 |  |  | 
27 | CC(C)(C)c1cc(-c2sc(C(=O)N[C@H]3C[C@H](C(=O)O)C3)nc2CC2CCCCC2)cc(C(C)(C)C)[n+]1[O-] [8/9] |  |  |  |  |  | 0.126 | 0.126 | 0.794
28 | CC(C)(C)NS(=O)(=O)c1ccc(-c2sc(C(=O)NCCC(C)(C)C(N)=O)nc2CC2CCCCC2)cc1C(F)(F)F [Example 10, N-(4-Amino-3,3-dimethyl-4-oxobutyl)-5-(4-(N-(tert-butyl)sulfamoyl)-3-(trifluoromethyl)phenyl)-4-(cyclohexylmethyl)thiazole-2-carboxamide] | 5.9/6.9/7.0 | 5.9/6.9/7.0 | 5.9/6.9/7.0 |  |  |  |  | 
29 | CC1(c2cc(Cl)cc(-c3sc(C(=O)N[C@H]4C[C@H](C(=O)O)C4)nc3CC3CCCCC3)c2)CC1 [9/9] | 5.4/6.9/7.0 | 5.4/6.9/7.0 | 5.4/6.9/7.0 |  |  |  |  | 
30 | CC(C)(C)NS(=O)(=O)c1ccc(-c2sc(C(=O)NN3CCS(=O)(=O)CC3)nc2CC2CCCCC2)c(Cl)c1Cl [6/21] | 6.8/8.7/8.7 | 6.8/8.7/8.7 | 6.8/8.7/8.7 |  |  |  |  | 
31 | CC(C)(C)NS(=O)(=O)c1ccc(-c2sc(C(=O)N3CC4(CCS(=O)(=O)CC4)C3)nc2CC2CCCCC2)c(Cl)c1Cl [6/45] | 7.1/7.9/8.0 | 7.1/7.9/8.0 | 7.1/7.9/8.0 |  |  |  |  | 
